In the supplement of paper PMC10307832 one finds relative viability data, which are given here for 9 cell lines.

Holding throughout (assay): relative viability (nuclei count vs DMSO), 5 days (fraction); higher = more cells survive
Compound in assay [1]: CC1=NC=CC(=C1)C2=CC=C(C=C2)CC(=O)NC3=CC=C(C=C3)C4=CN=CC=C4 [Wnt-C59] + Nc1nc2[nH]cc(CCc3ccc(C(=O)N[C@@H](CCC(=O)O)C(=O)O)cc3)c2c(=O)[nH]1 [Pemetrexed] (partner 0.2 µM)
The method in brief: (§1)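 Nuclei were stained with Hoechst during a one-step fixation (final 0.05% Triton X-100, 1% formaldehyde, 1 ug/ml Hoechst) carried out 5 days after dosing, then counted on 4× images. The cells, lung cancer lines in 1536-well plates, had been dosed by pin tool the day after seeding with one drug alone or a fixed anchor-drug dose plus five library-drug doses (not always all listed) in √10 steps. Relative viability is the nuclei count in treated wells divided by that in vehicle wells, and each value is the median of duplicate plates.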

Compound in assay [2]: CC1=NC=CC(=C1)C2=CC=C(C=C2)CC(=O)NC3=CC=C(C=C3)C4=CN=CC=C4 [Wnt-C59] + COc1cccc2cc(-c3nc([C@H]4CC[C@H](C(=O)O)CC4)n4ncnc(N)c34)[nH]c12 [OSI-027] (partner 0.5 µM)
The procedure, abridged: as §1

Compound in assay [3]: CC1=NC=CC(=C1)C2=CC=C(C=C2)CC(=O)NC3=CC=C(C=C3)C4=CN=CC=C4 [Wnt-C59] + O=C(c1cc(Cc2n[nH]c(=O)c3ccccc23)ccc1F)N1CCN(C(=O)C2CC2)CC1 [Olaparib] (partner 8 µM)
The procedure, abridged:
as §1

Compound in assay [4]: CC1=NC=CC(=C1)C2=CC=C(C=C2)CC(=O)NC3=CC=C(C=C3)C4=CN=CC=C4 [Wnt-C59] + O=C(CCCCCCC(=O)Nc1ccccc1)NO [Vorinostat] (partner 1 µM)
The method in brief:
as §1

In the case of PC-3 [JPC-3], the relative viability in assay [1] (first compound 0.001 µM) is 1.11; in assay [1] (first compound 0.01 µM) it was 1.24; in assay [1] (first compound 0.03162 µM), 1.04; in assay [1] (first compound 0.1 µM) it was 1.47; in assay [2] (first compound 0.001 µM) it was 0.83; in assay [2] (first compound 0.01 µM), 0.738. The relative viability in assay [2] (first compound 0.03162 µM) amounted to 0.83; in assay [2] (first compound 0.1 µM) it was 0.773; in assay [3] (first compound 0.001 µM), 1.18; in assay [3] (first compound 0.01 µM) it was 1.21; in assay [3] (first compound 0.03162 µM), 1.22; in assay [3] (first compound 0.1 µM), 1.16. The relative viability in assay [4] (first compound 0.001 µM) stood at 0.781; in assay [4] (first compound 0.01 µM), 0.917; in assay [4] (first compound 0.03162 µM) it was 0.785; in assay [4] (first compound 0.1 µM), 1.13.
Turning to H3255, the relative viability in assay [1] (first compound 0.001 µM) came to 0.598; in assay [1] (first compound 0.01 µM), 0.553; in assay [1] (first compound 0.03162 µM) it was 0.583; in assay [1] (first compound 0.1 µM), 0.554; in assay [2] (first compound 0.001 µM), 0.683; in assay [2] (first compound 0.01 µM), 0.58. Further, the relative viability in assay [2] (first compound 0.03162 µM) was 0.685; in assay [2] (first compound 0.1 µM), 0.545; in assay [3] (first compound 0.001 µM), 0.641; in assay [3] (first compound 0.01 µM) it was 0.458; in assay [3] (first compound 0.03162 µM) it was 0.56; in assay [3] (first compound 0.1 µM), 0.526. Further, the relative viability came out at 0.79 in assay [4] (first compound 0.001 µM), 0.71 in assay [4] (first compound 0.01 µM), 0.95 in assay [4] (first compound 0.03162 µM) and 0.86 in assay [4] (first compound 0.1 µM).
With HOP-62, the relative viability was 0.34 in assay [1] (first compound 0.001 µM); 0.294 in assay [1] (first compound 0.01 µM); 0.353 in assay [1] (first compound 0.03162 µM); 0.29 in assay [1] (first compound 0.1 µM); 0.743 in assay [2] (first compound 0.001 µM); 0.813 in assay [2] (first compound 0.01 µM). Moreover, the relative viability in assay [2] (first compound 0.03162 µM) was determined as 0.788; in assay [2] (first compound 0.1 µM), 0.852; in assay [3] (first compound 0.001 µM), 0.523; in assay [3] (first compound 0.01 µM), 0.266; in assay [3] (first compound 0.03162 µM), 0.363; in assay [3] (first compound 0.1 µM) it was 0.343. Also, the relative viability turned out to be 0.639 in assay [4] (first compound 0.001 µM), 0.576 in assay [4] (first compound 0.01 µM), 0.508 in assay [4] (first compound 0.03162 µM) and 0.637 in assay [4] (first compound 0.1 µM).
For the cell line LK-2, the relative viability was 0.332 in assay [1] (first compound 0.001 µM); 0.295 in assay [1] (first compound 0.01 µM); 0.323 in assay [1] (first compound 0.03162 µM); 0.331 in assay [1] (first compound 0.1 µM); 0.211 in assay [2] (first compound 0.001 µM); 0.265 in assay [2] (first compound 0.01 µM). Besides, the relative viability came to 0.199 in assay [2] (first compound 0.03162 µM); 0.229 in assay [2] (first compound 0.1 µM); 0.728 in assay [3] (first compound 0.001 µM); 0.819 in assay [3] (first compound 0.01 µM); 0.739 in assay [3] (first compound 0.03162 µM); 0.748 in assay [3] (first compound 0.1 µM). Also, the relative viability in assay [4] (first compound 0.001 µM) amounted to 0.441; in assay [4] (first compound 0.01 µM), 0.295; in assay [4] (first compound 0.03162 µM), 0.3; in assay [4] (first compound 0.1 µM) it was 0.233.
With NCI-H441, the relative viability in assay [1] (first compound 0.001 µM) came to 0.277; in assay [1] (first compound 0.01 µM) it was 0.225; in assay [1] (first compound 0.03162 µM) it was 0.258; in assay [1] (first compound 0.1 µM), 0.276; in assay [2] (first compound 0.001 µM) it was 0.754; in assay [2] (first compound 0.01 µM), 0.616. Also, the relative viability in assay [2] (first compound 0.03162 µM) came to 0.718; in assay [2] (first compound 0.1 µM), 0.568; in assay [3] (first compound 0.001 µM), 0.569; in assay [3] (first compound 0.01 µM), 0.632; in assay [3] (first compound 0.03162 µM), 0.633; in assay [3] (first compound 0.1 µM) it was 0.447. Further, the relative viability in assay [4] (first compound 0.001 µM) is 0.786; in assay [4] (first compound 0.01 µM), 0.867; in assay [4] (first compound 0.03162 µM) it was 0.806; in assay [4] (first compound 0.1 µM), 0.887.
For PC-14, the relative viability in assay [1] (first compound 0.001 µM) is 0.131; in assay [1] (first compound 0.01 µM), 0.138; in assay [1] (first compound 0.03162 µM), 0.109; in assay [1] (first compound 0.1 µM) it was 0.143; in assay [2] (first compound 0.001 µM), 1.01; in assay [2] (first compound 0.01 µM) it was 0.897. The relative viability in assay [2] (first compound 0.03162 µM) was determined as 1.18; in assay [2] (first compound 0.1 µM), 0.731; in assay [3] (first compound 0.001 µM), 0.26; in assay [3] (first compound 0.01 µM), 0.248; in assay [3] (first compound 0.03162 µM), 0.342; in assay [3] (first compound 0.1 µM), 0.292. Moreover, the relative viability amounted to 0.815 in assay [4] (first compound 0.001 µM), 0.96 in assay [4] (first compound 0.01 µM), 0.886 in assay [4] (first compound 0.03162 µM) and 0.723 in assay [4] (first compound 0.1 µM).
EMC-BAC-2: the relative viability in assay [1] (first compound 0.001 µM) is 0.474; in assay [1] (first compound 0.01 µM), 0.447; in assay [1] (first compound 0.03162 µM), 0.426; in assay [1] (first compound 0.1 µM), 0.439; in assay [2] (first compound 0.001 µM), 0.377; in assay [2] (first compound 0.01 µM), 0.36. Besides, the relative viability in assay [2] (first compound 0.03162 µM) stood at 0.366; in assay [2] (first compound 0.1 µM) it was 0.387; in assay [3] (first compound 0.001 µM), 0.497; in assay [3] (first compound 0.01 µM) it was 0.488; in assay [3] (first compound 0.03162 µM), 0.486; in assay [3] (first compound 0.1 µM) it was 0.482. For the same cell line, the relative viability was determined as 0.421 in assay [4] (first compound 0.001 µM), 0.412 in assay [4] (first compound 0.01 µM), 0.409 in assay [4] (first compound 0.03162 µM) and 0.751 in assay [4] (first compound 0.1 µM).
In the case of NCI-H358, the relative viability in assay [1] (first compound 0.001 µM) is 0.167; in assay [1] (first compound 0.01 µM), 0.176; in assay [1] (first compound 0.03162 µM) it was 0.207; in assay [1] (first compound 0.1 µM), 0.172; in assay [2] (first compound 0.001 µM), 0.838; in assay [2] (first compound 0.01 µM), 0.769. For the same cell line, the relative viability came out at 0.908 in assay [2] (first compound 0.03162 µM); 0.767 in assay [2] (first compound 0.1 µM); 0.623 in assay [3] (first compound 0.001 µM); 0.609 in assay [3] (first compound 0.01 µM); 0.576 in assay [3] (first compound 0.03162 µM); 0.801 in assay [3] (first compound 0.1 µM). For the same cell line, the relative viability is 0.803 in assay [4] (first compound 0.001 µM), 0.589 in assay [4] (first compound 0.01 µM), 0.8 in assay [4] (first compound 0.03162 µM) and 0.65 in assay [4] (first compound 0.1 µM).
As to NCI-H2087, the relative viability worked out at 0.629 in assay [1] (first compound 0.001 µM); 0.72 in assay [1] (first compound 0.01 µM); 0.697 in assay [1] (first compound 0.03162 µM); 0.709 in assay [1] (first compound 0.1 µM); 0.53 in assay [2] (first compound 0.001 µM); 0.476 in assay [2] (first compound 0.01 µM). Moreover, the relative viability in assay [2] (first compound 0.03162 µM) amounted to 0.572; in assay [2] (first compound 0.1 µM), 0.592; in assay [3] (first compound 0.001 µM), 0.608; in assay [3] (first compound 0.01 µM) it was 0.657; in assay [3] (first compound 0.03162 µM), 0.688; in assay [3] (first compound 0.1 µM), 0.722. The relative viability in assay [4] (first compound 0.001 µM) is 0.905; in assay [4] (first compound 0.01 µM), 0.336; in assay [4] (first compound 0.03162 µM) it was 0.788; in assay [4] (first compound 0.1 µM), 0.764.
